Target: T1, CAMK1D (CaMKI delta) (Homo sapiens, UniProt Q8IU85)
T1 construct: purchased Thermo Fisher Scientific (Life Technologies) SelectScreen
Assay: SelectScreen Z'LYTE
Type: biochemical
Summary of the method: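 Percent values come from Thermo SelectScreen profiling of NU5455, combining activity and binding assays. CSF1R was run in Z'LYTE format at Km app ATP, and CAMK1 in Adapta format with ATP listed at 10.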

T1 sequence (Q8IU85 whole entry): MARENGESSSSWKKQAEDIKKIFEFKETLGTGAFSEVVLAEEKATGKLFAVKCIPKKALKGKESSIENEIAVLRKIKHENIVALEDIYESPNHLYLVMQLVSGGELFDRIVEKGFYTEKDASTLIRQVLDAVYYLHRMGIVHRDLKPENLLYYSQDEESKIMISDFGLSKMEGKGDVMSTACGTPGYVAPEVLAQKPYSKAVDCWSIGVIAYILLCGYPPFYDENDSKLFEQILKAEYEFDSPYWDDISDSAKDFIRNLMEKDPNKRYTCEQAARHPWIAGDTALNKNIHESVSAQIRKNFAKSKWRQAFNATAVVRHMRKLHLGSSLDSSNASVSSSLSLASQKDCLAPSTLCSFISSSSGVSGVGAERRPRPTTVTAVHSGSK

Compound: CN(C(=O)CN1CCOCC1)c1ccc2sc3c(-c4cccc5c(=O)cc(N6CC7CCC(C6)O7)oc45)cccc3c2c1 [NU5455]
- inhibition at 1 µM: 4.1%
